O=C(NC[C@H]1CN(c2ccc(N3CCOCC3=O)cc2)C(=O)O1)c1ccc(Cl)s1
solubility (mole fraction)
Details | 278.15 K | 283.15 K | 288.15 K | 293.15 K | 298.15 K | 303.15 K | 308.15 K | 313.15 K | 318.15 K
in DMAc | 0.00978 | 0.0108 | 0.0119 | 0.0131 | 0.0144 | 0.0158 | 0.0173 | 0.0189 | 0.0206
in DMF | 0.00586 | 0.00662 | 0.00747 | 0.0084 | 0.00943 | 0.0106 | 0.0118 | 0.0132 | 0.0147
in THF | 0.000205 | 0.00023 | 0.000263 | 0.00029 | 0.000328 | 0.000359 | 0.000401 | 0.00045 | 0.000511
in ethyl acetate | 5.17e-05 | 5.93e-05 | 6.79e-05 | 7.74e-05 | 8.81e-05 | 0.0001 | 0.000113 | 0.000128 | 0.000144
